How the values were obtained:
[1] = tested on: Rabbit Reticulocyte Lysate; experiment: In vitro screening in rabbit reticulocyte lysates, luciferase mRNA translation; type: biochemical; settings: 250 ng luciferase mRNA, 60 minutes, 30° C.
Experimental: The diluted luciferase was added to 40 ul of freshly prepared Rabbit Reticulocyte Lysate and the in vitro translation reaction was done in a standard 1.5 mL polypropylene reaction tube (Thermo Fisher Scientific, Waltham, Mass.) at 30° C. in a dry heating block. The translation assay was done with the Rabbit Reticulocyte Lysate (nuclease-treated) kit (Promega, Madison, Wis.) according to the manufacturer's instructions. The reaction buffer was supplemented with a one-to-one blend of provided amino acid stock solutions devoid of either Leucine or Methionine resulting in a reaction mix containing sufficient amounts of both amino acids to allow effective in vitro translation.
After 60 minutes of incubation, the reaction was stopped by placing the reaction tubes on ice. Aliquots of the in vitro translation reaction containing luciferase modified RNA were transferred to white opaque polystyrene 96-well plates (Corning, Manassas, Va.) and combined with 100 ul complete luciferase assay solution (Promega, Madison, Wis.). The volumes of the in vitro translation reactions were adjusted or diluted until no more than 2 mio relative light units (RLUs) per well were detected for the strongest signal producing samples and the RLUs for each chemistry tested are shown in Table 20. The plate reader was a BioTek Synergy H1 (BioTek, Winooski, Vt.). The background signal of the plates without reagent was about 200 relative light units per well.

[2] = tested on: HeLa cells; experiment: Luciferase in HeLa cells using a combination of modifications; type: cell-based, human; settings: 83 ng luciferase modified RNA, 18 to 22 hours, listed as 5-methylcytidine/pseudouridine
Experimental: To evaluate using of 2′fluoro-modified mRNA in combination with other modification a series of mRNA were transcribed using either wild-type T7 polymerase (non-fluoro-containing compounds) or using mutant T7 polymerases (fluyoro-containing compounds) as described in Example 86. All modified mRNA were tested by in vitro transfection in HeLa cells.
(§1) The day before transfection, 20,000 HeLa cells (ATCC no. CCL-2; Manassas, Va.) were harvested by treatment with Trypsin-EDTA solution (LifeTechnologies, Grand Island, N.Y.) and seeded in a total volume of 100 ul EMEM medium (supplemented with 10% FCS and 1× Glutamax) per well in a 96-well cell culture plate (Corning, Manassas, Va.). The cells were grown at […] in 5% CO2 atmosphere overnight. […] Lipofectamine 2000 (LifeTechnologies, Grand Island, N.Y.) was used as transfection reagent and 0.2 ul were diluted in 10 ul final volume of OPTI-MEM. After 5 minutes of incubation at room temperature, both solutions were combined and incubated an additional 15 minute at room temperature. Then the 20 ul combined solution was added to the 100 ul cell culture medium containing the HeLa cells and incubated at room temperature.
(§2) After 18 to 22 hours of incubation cells expressing luciferase were lysed with 100 ul of Passive Lysis Buffer (Promega, Madison, Wis.) according to manufacturer instructions. Aliquots of the lysates were transferred to white opaque polystyrene 96-well plates (Corning, Manassas, Va.) and combined with 100 ul complete luciferase assay solution (Promega, Madison, Wis.). The lysate volumes were adjusted or diluted until no more than 2 mio relative light units (RLU) per well were detected for the strongest signal producing samples and the RLUs for each chemistry tested are shown in Table 26. The plate reader was a BioTek Synergy H1 (BioTek, Winooski, Vt.). The background signal of the plates without reagent was about 200 relative light units per well.

[3] = tested on: HeLa cells; experiment: In vitro screening in HeLa cells, luciferase modified RNA; type: cell-based, human; settings: HeLa cells, 83 ng luciferase modified RNA, 18 to 22 hours
Experimental: as §1
as §2, with “19.” for “26.”

[4] = tested on: interferon-alpha (IFN-alpha); experiment: 2′Fluoro chemistries in PBMC: IFN-alpha production by ELISA; type: cell-based, human; settings: G-CSF modified mRNA
[5] = tested on: tumor necrosis factor-alpha (TNF-alpha); experiment: 2′Fluoro chemistries in PBMC: TNF-alpha production by ELISA; type: cell-based, human; settings: G-CSF modified mRNA
[6] = tested on: HeLa cells; experiment: G-CSF modified mRNA transfected in HeLa cells, G-CSF ELISA; type: cell-based, human; settings: HeLa cells, combination chemistries, ELISA
Experimental: To assess the activity of all our different chemical modifications in the context of a second open reading frame, we replicated experiments previously conducted using luciferase mRNA, with human G-CSF mRNA. […] The mutant T7 polymerase was obtained commercially (Durascribe® T7 Transcription kit (Cat. No. DS010925) (Epicentre®, Madison, Wis.).
The modified RNA in Tables 27 and 28 were transfected in vitro in HeLa cells or added to rabbit reticulysates (250 ng of modified mRNA) as indicated. […] In Table 27, “NT” means not tested.

In the case of “5-methylcytosine/pseudouridine, test A1: Luciferase mRNA (SEQ ID NO: 409) modified with 5-methylcytosine and pseudouridine; repeated tests”, the RLU [1] is reported as 349,398 RLU, the RLU ([1]; test A2) is reported as 558,779 RLU and the RLU ([1]; test A3) is reported as 413,535 RLU. For the same molecule, the RLU ([1]; test B1) was 454,662 RLU, the RLU ([1]; test B2) was 487,805 RLU and the RLU ([2]; test A) was 13,833 RLU. For the same molecule, the RLU ([2]; test B) was 115,401 RLU, the RLU [3] was 48,659 RLU and the RLU ([3]; test A2) was 295,824 RLU. The RLU ([3]; test A3) was 438,831 RLU, the RLU ([3]; test B1) was 317,744 RLU and the RLU ([3]; test B2) was 481,477 RLU.

For `CCOCc1nc2c(N)nc3ccccc3c2n1CC(C)(C)O` [Compound R-848, reference compound], the “IFN-alpha: 3 Donor Average” value [4] was 45 pg/mL and the “TNF-alpha: 2 Donor Average” value [5] was 8,235 pg/ml.

B1: 5-methylcytidine/5-bromouridine: G-CSF mRNA (SEQ ID NO: 408) fully modified with the named combination (nucleic acid)
chain: GGGAAAUAAGAGAGAAAAGAAGAGUAAGAAGAAAUAUAAGAGCCACCAUGGCCGGUCCCGCGACCCAAAGCCCCAUGAAACUUAUGGCCCUGCAGUUGCUGCUUUGGCACUCGGCCCUCUGGACAGUCCAAGAAGCGACUCCUCUCGGACCUGCCUCAUCGUUGCCGCAGUCAUUCCUUUUGAAGUGUCUGGAGCAGGUGCGAAAGAUUCAGGGCGAUGGAGCCGCACUCCAAGAGAAGCUCUGCGCGACAUACAAACUUUGCCAUCCCGAGGAGCUCGUACUGCUCGGGCACAGCUUGGGGAUUCCCUGGGCUCCUCUCUCGUCCUGUCCGUCGCAGGCUUUGCAGUUGGCAGGGUGCCUUUCCCAGCUCCACUCCGGUUUGUUCUUGUAUCAGGGACUGCUGCAAGCCCUUGAGGGAAUCUCGCCAGAAUUGGGCCCGACGCUGGACACGUUGCAGCUCGACGUGGCGGAUUUCGCAACAACCAUCUGGCAGCAGAUGGAGGAACUGGGGAUGGCACCCGCGCUGCAGCCCACGCAGGGGGCAAUGCCGGCCUUUGCGUCCGCGUUUCAGCGCAGGGCGGGUGGAGUCCUCGUAGCGAGCCACCUUCAAUCAUUUUUGGAAGUCUCGUACCGGGUGCUGAGACAUCUUGCGCAGCCGUGAAGCGCUGCCUUCUGCGGGGCUUGCCUUCUGGCCAUGCCCUUCUUCUCUCCCUUGCACCUGUACCUCUUGGUCUUUGAAUAAAGCCUGAGUAGGAAG
modifications: 5-methylcytidine/5-bromouridine modified; Description of Artificial Sequence: Synthetic Transcript Sequence
With B1 the “G-CSF protein (pg/ml) HeLa cells” value [6] was 48,864 pg/ml, the “IFN-alpha: 3 Donor Average” value [4] was 0 pg/mL and the “TNF-alpha: 2 Donor Average” value [5] was 270 pg/mL.

B2: N4-acetylcytidine/2-thiouridine: G-CSF mRNA (SEQ ID NO: 408) fully modified with the named combination (nucleic acid)
chain: GGGAAAUAAGAGAGAAAAGAAGAGUAAGAAGAAAUAUAAGAGCCACCAUGGCCGGUCCCGCGACCCAAAGCCCCAUGAAACUUAUGGCCCUGCAGUUGCUGCUUUGGCACUCGGCCCUCUGGACAGUCCAAGAAGCGACUCCUCUCGGACCUGCCUCAUCGUUGCCGCAGUCAUUCCUUUUGAAGUGUCUGGAGCAGGUGCGAAAGAUUCAGGGCGAUGGAGCCGCACUCCAAGAGAAGCUCUGCGCGACAUACAAACUUUGCCAUCCCGAGGAGCUCGUACUGCUCGGGCACAGCUUGGGGAUUCCCUGGGCUCCUCUCUCGUCCUGUCCGUCGCAGGCUUUGCAGUUGGCAGGGUGCCUUUCCCAGCUCCACUCCGGUUUGUUCUUGUAUCAGGGACUGCUGCAAGCCCUUGAGGGAAUCUCGCCAGAAUUGGGCCCGACGCUGGACACGUUGCAGCUCGACGUGGCGGAUUUCGCAACAACCAUCUGGCAGCAGAUGGAGGAACUGGGGAUGGCACCCGCGCUGCAGCCCACGCAGGGGGCAAUGCCGGCCUUUGCGUCCGCGUUUCAGCGCAGGGCGGGUGGAGUCCUCGUAGCGAGCCACCUUCAAUCAUUUUUGGAAGUCUCGUACCGGGUGCUGAGACAUCUUGCGCAGCCGUGAAGCGCUGCCUUCUGCGGGGCUUGCCUUCUGGCCAUGCCCUUCUUCUCUCCCUUGCACCUGUACCUCUUGGUCUUUGAAUAAAGCCUGAGUAGGAAG
modifications: N4-acetylcytidine/2-thiouridine modified; Description of Artificial Sequence: Synthetic Transcript Sequence
In the case of B2, the “G-CSF protein (pg/ml) HeLa cells” value [6] is reported as 46,136 pg/ml, the “IFN-alpha: 3 Donor Average” value [4] is reported as 0 pg/mL and the “TNF-alpha: 2 Donor Average” value [5] is reported as 285 pg/mL.

B3: N4-acetylcytidine/5-bromouridine: G-CSF mRNA (SEQ ID NO: 408) fully modified with the named combination (nucleic acid)
chain: GGGAAAUAAGAGAGAAAAGAAGAGUAAGAAGAAAUAUAAGAGCCACCAUGGCCGGUCCCGCGACCCAAAGCCCCAUGAAACUUAUGGCCCUGCAGUUGCUGCUUUGGCACUCGGCCCUCUGGACAGUCCAAGAAGCGACUCCUCUCGGACCUGCCUCAUCGUUGCCGCAGUCAUUCCUUUUGAAGUGUCUGGAGCAGGUGCGAAAGAUUCAGGGCGAUGGAGCCGCACUCCAAGAGAAGCUCUGCGCGACAUACAAACUUUGCCAUCCCGAGGAGCUCGUACUGCUCGGGCACAGCUUGGGGAUUCCCUGGGCUCCUCUCUCGUCCUGUCCGUCGCAGGCUUUGCAGUUGGCAGGGUGCCUUUCCCAGCUCCACUCCGGUUUGUUCUUGUAUCAGGGACUGCUGCAAGCCCUUGAGGGAAUCUCGCCAGAAUUGGGCCCGACGCUGGACACGUUGCAGCUCGACGUGGCGGAUUUCGCAACAACCAUCUGGCAGCAGAUGGAGGAACUGGGGAUGGCACCCGCGCUGCAGCCCACGCAGGGGGCAAUGCCGGCCUUUGCGUCCGCGUUUCAGCGCAGGGCGGGUGGAGUCCUCGUAGCGAGCCACCUUCAAUCAUUUUUGGAAGUCUCGUACCGGGUGCUGAGACAUCUUGCGCAGCCGUGAAGCGCUGCCUUCUGCGGGGCUUGCCUUCUGGCCAUGCCCUUCUUCUCUCCCUUGCACCUGUACCUCUUGGUCUUUGAAUAAAGCCUGAGUAGGAAG
modifications: N4-acetylcytidine/5-bromouridine modified; Description of Artificial Sequence: Synthetic Transcript Sequence
In the case of B3, the “G-CSF protein (pg/ml) HeLa cells” value [6] is reported as 211,591 pg/ml, the “IFN-alpha: 3 Donor Average” value [4] is reported as 44 pg/mL and the “TNF-alpha: 2 Donor Average” value [5] is reported as 403 pg/mL.

— US20180291335A1, “MODIFIED POLYNUCLEOTIDES FOR ALTERING CELL PHENOTYPE” (ModernaTX, Inc., priority 2012, published 2018)
